Results taken from PMC8979682, “Synthesis, Antioxidant, and Antidiabetic Activities of Ketone Derivatives of Succinimide” (Evidence-based Complementary and Alternative Medicine : eCAM, 2022).
Converted amounts (≈) assume the structure as drawn.

Experiments:
ABTS scavenging activity = type: biochemical
Description: For the determination of the antioxidant activity of the synthesized compounds, the previously reported method for ABTS scavenging activity was used with slight modification. The stock solution of 2.4 mM of potassium per sulfate solution and 7 mM ABTS solution was prepared by mixing them in equal volumes for 16 h. The stock solution thus prepared was diluted using methyl alcohol to give absorption of 0.7 ± 0.02 units when studied at the wavelength of 734 nm using a spectrophotometer. Fresh ABTS solution was prepared for each ABTS scavenging assay. About 150 μL of the ABTS working solution was added to 50 μL of synthesized compounds and kept in darkness for 10 min. […] Methanol was used as blank, and standard ascorbic acid was run at the same time. The absorbance was calculated utilizing a microplate reader at 734 nm.

mice = assay: oral glucose tolerance test (OGTT); type: in vivo; conditions: glucose 2 g/kg orally
Description: To perform OGTT mice fasted overnight were used including both control and treated mice. Glucose was administered orally at the dose of 2 g/kg against glibenclamide as standard drug. After administration of glucose, blood glucose level was calculated at time intervals of 0, 30, 60, and 120 min for assessment of the impact of exogenously given D-glucose on treated mice. OGTT was carried out 5 days before the completion of the study.
To perform OGTT, mice fasted overnight were used including both control and treated mice. Glucose was administered orally at the dose of 2 g/kg against glibenclamide as a standard drug. After administration of glucose, blood glucose level was calculated at time intervals of 0, 30, 60, and 120 min for assessment of the impact of exogenously given D-glucose on treated mice.

α-glucosidase = assay: in vitro α-glucosidase inhibition; type: biochemical
Description: For in vitro α-glucosidase activity, samples were prepared by adding glucopyranoside to phosphate buffer solvent, and different concentrations of the synthesized compounds (31.25, 62.5, 125, 250, and 500 µg/ml), respectively, were added to this solution and then the enzyme glucosidase in distilled water (0.5 µg/ml) was also added to the above mixture. The reaction mixture thus prepared was subjected to incubation at 37°C for 20 minutes. The reaction was halted by adding HCl after incubation of the mixture. The intensity of the color was determined at 540 nm by spectrophotometer, and the formula given below was used for the determination of percent inhibition:(2) percent inhibition=absorbancecontrol−absorbancesample/absorbancecontrol×100.

α-amylase = assay: in vitro α-amylase inhibition; type: biochemical
Description: The starch solution was added, following incubation of the mixture, and the reaction mixture thus prepared was kept in water bath at 100°C for some time. Microplate reader measured the intensity of the color at 656 nm. Following formula was used to determine percentage inhibition:(3) percent inhibition=absorbancecontrol−absorbancesample/absorbancecontrol×100.

DPPH scavenging activity = type: biochemical
Description: The antioxidant assay of the synthesized compounds was conducted following the previously reported method. A freshly prepared DPPH solution (50 μL of 1.0 × 10^−3 M) was added in methyl alcohol. Methanol was used as a control in this experiment. The prepared mixture was subjected to incubation at 25°C for 30 min. A decrease in the DPPH free radical concentration was calculated using a spectrophotometer at a wavelength of 517 nm. After incubation ascorbic acid was used as a positive control. The antioxidant activity was determined as a percent (%) of inhibition using the formula given:(1) percent inhibition=absorbancecontrol−absorbancesample/absorbancecontrol×100.

[1] = system: diabetic mice (by alloxan); assay: antidiabetic activity in diabetic mice (by alloxan); type: in vivo
Description: Alloxan was used for the induction of diabetes mellitus according to reported procedure. Recently prepared Alloxan (ALX) was injected intraperitoneally to animals, fasting for 16 h, at a single dose of (150 mg/kg). […] Only diabetic animals, having random blood glucose level more than 200 mg/dl, were selected for studies. All the experimental procedure were approved from the ethical committee department of pharmacy, University of Swabi via letter No; UOS-06/2021.
A total of 30 animals were used to determine the hypoglycemic effect of the synthesized derivatives of succinimide. The experimental animals were segregated in six groups […], having five (5) animals in each group. Group I was designated as normal group and was given normal saline I/P only. Group II was given Tween 80, and Group III was given standard drug (glibenclamide) after the induction of diabetes. Group IV, Group V, and Group VI were given the various doses of synthesized compounds, respectively. […]

In the case of O=C1CCCCC1C1CC(=O)N(c2ccc(Br)cc2)C1=O (stereo not drawn) [BW3, (4-Bromophenyl)-3-(2-Oxocyclohexyl) Pyrrolidine-2,5-Dione], the “IC50 (ABTS)” value (ABTS scavenging activity) is reported as 36.82 µg/mL (≈ 105 µM), the “(%) ABTS inhibitions” value (ABTS scavenging activity; 31.25 µg/ml) is reported as 48.42 ± 0.43^ns % and the “(%) ABTS inhibitions” value (ABTS scavenging activity; 62.50 µg/ml) is reported as 53.33 ± 0.66^∗ %. The “(%) ABTS inhibitions” value (ABTS scavenging activity; 125 µg/ml) was 58.40 ± 0.82^∗∗∗ %, the “(%) ABTS inhibitions” value (ABTS scavenging activity; 250 µg/ml) was 64.90 ± 0.45^∗∗∗ % and the “(%) ABTS inhibitions” value (ABTS scavenging activity; 500 µg/ml) was 70.56 ± 1.06^∗∗∗ %. The “OGTT blood glucose, 0 minutes” value (mice; 0 minutes) was 156.2 mg/dL, the “OGTT blood glucose, 30 minutes” value (mice; 30 minutes) was 174.1 mg/dL and the “OGTT blood glucose, 60 minutes” value (mice; 60 minutes) was 196.3 mg/dL. The “OGTT blood glucose, 120 minutes” value (mice; 120 minutes) was 145.4 mg/dL, the “IC50 (α-glucosidase)” value (α-glucosidase) was 12.15 µg/mL (≈ 34.7 µM) and the “% inhibitions (α-glucosidase)” value (α-glucosidase; 31.25 µg/ml) was 57.47 ± 0.56^∗∗∗ %. For the same compound, the “% inhibitions (α-glucosidase)” value (α-glucosidase; 62.50 µg/ml) was 63.28 ± 0.57^∗∗∗ %, the “% inhibitions (α-glucosidase)” value (α-glucosidase; 125 µg/ml) was 67.90 ± 0.96^∗∗∗ % and the “% inhibitions (α-glucosidase)” value (α-glucosidase; 250 µg/ml) was 72.08 ± 0.47^∗∗∗ %. The “% inhibitions (α-glucosidase)” value (α-glucosidase; 500 µg/ml) was 77.85 ± 2.24^∗∗∗ %, the “IC50 (α-amylase)” value (α-amylase) was 18.20 µg/mL (≈ 52 µM) and the “% inhibitions (α-amylase)” value (α-amylase; 31.25 µg/ml) was 54.67 ± 0.35^∗∗∗ %. The “% inhibitions (α-amylase)” value (α-amylase; 62.50 µg/ml) was 62.16 ± 0.12^∗∗∗ %, the “% inhibitions (α-amylase)” value (α-amylase; 125 µg/ml) was 67.62 ± 0.03^∗∗∗ % and the “% inhibitions (α-amylase)” value (α-amylase; 250 µg/ml) was 71.36 ± 1.15^∗∗∗ %. For the same compound, the “% inhibitions (α-amylase)” value (α-amylase; 500 µg/ml) was 75.35 ± 0.89^∗∗∗ %, the “IC50 (DPPH)” value (DPPH scavenging activity) was 15.93 µg/mL (≈ 45.5 µM) and the “(%) DPPH inhibitions” value (DPPH scavenging activity; 31.25 µg/ml) was 57.69 ± 0.77^∗∗∗ %. The “(%) DPPH inhibitions” value (DPPH scavenging activity; 62.50 µg/ml) was 66.67 ± 0.61^∗∗∗ %, the “(%) DPPH inhibitions” value (DPPH scavenging activity; 125 µg/ml) was 71.79 ± 0.63^∗∗ % and the “(%) DPPH inhibitions” value (DPPH scavenging activity; 250 µg/ml) was 76.90 ± 0.48^∗ %. The “(%) DPPH inhibitions” value (DPPH scavenging activity; 500 µg/ml) was 83.03 ± 0.48^∗ %, the “Change in body weight” value ([1]; dose 31.25 μg/kg) was −8.4 Gm and the “Decrease in blood glucose after 15 days” value ([1]; dose 31.25 μg/kg) was -39 mg/dL. For the same compound, the “Blood glucose level, 0 day” value ([1]; dose 31.25 μg/kg) was 439 mg/dL, the “Blood glucose level, 4th day” value ([1]; dose 31.25 μg/kg) was 446 mg/dL and the “Blood glucose level, 7th day” value ([1]; dose 31.25 μg/kg) was 457 mg/dL. For the same compound, the “Blood glucose level, 10th day” value ([1]; dose 31.25 μg/kg) was 468 mg/dL, the “Blood glucose level, 15th day” value ([1]; dose 31.25 μg/kg) was 478 mg/dL and the “Change in body weight” value ([1]; dose 62.5 μg/kg) was −6.2 Gm. The “Decrease in blood glucose after 15 days” value ([1]; dose 62.5 μg/kg) was -56 mg/dL, the “Blood glucose level, 0 day” value ([1]; dose 62.5 μg/kg) was 443 mg/dL and the “Blood glucose level, 4th day” value ([1]; dose 62.5 μg/kg) was 465 mg/dL. The “Blood glucose level, 7th day” value ([1]; dose 62.5 μg/kg) was 478 mg/dL, the “Blood glucose level, 10th day” value ([1]; dose 62.5 μg/kg) was 493 mg/dL and the “Blood glucose level, 15th day” value ([1]; dose 62.5 μg/kg) was 499 mg/dL. For the same compound, the “Change in body weight” value ([1]; dose 125 μg/kg) was “+5.3 Gm”, the “Decrease in blood glucose after 15 days” value ([1]; dose 125 μg/kg) was -29 mg/dL and the “Blood glucose level, 0 day” value ([1]; dose 125 μg/kg) was 387 mg/dL. For the same compound, the “Blood glucose level, 4th day” value ([1]; dose 125 μg/kg) was 437 mg/dL, the “Blood glucose level, 7th day” value ([1]; dose 125 μg/kg) was 430 mg/dL and the “Blood glucose level, 10th day” value ([1]; dose 125 μg/kg) was 424 mg/dL. For the same compound, the “Blood glucose level, 15th day” value ([1]; dose 125 μg/kg) was 416 mg/dL, the “Change in body weight” value ([1]; dose 250 μg/kg) was −5.1 Gm and the “Decrease in blood glucose after 15 days” value ([1]; dose 250 μg/kg) was 35 mg/dL. For the same compound, the “Blood glucose level, 0 day” value ([1]; dose 250 μg/kg) was 431 mg/dL, the “Blood glucose level, 4th day” value ([1]; dose 250 μg/kg) was 419 mg/dL and the “Blood glucose level, 7th day” value ([1]; dose 250 μg/kg) was 411 mg/dL. For the same compound, the “Blood glucose level, 10th day” value ([1]; dose 250 μg/kg) was 403 mg/dL, the “Blood glucose level, 15th day” value ([1]; dose 250 μg/kg) was 396 mg/dL and the “Change in body weight” value ([1]; dose 500 μg/kg) was “+2.5 Gm”. For the same compound, the “Decrease in blood glucose after 15 days” value ([1]; dose 500 μg/kg) was 49 mg/dL, the “Blood glucose level, 0 day” value ([1]; dose 500 μg/kg) was 430 mg/dL and the “Blood glucose level, 4th day” value ([1]; dose 500 μg/kg) was 420 mg/dL. For the same compound, the “Blood glucose level, 7th day” value ([1]; dose 500 μg/kg) was 401 mg/dL, the “Blood glucose level, 10th day” value ([1]; dose 500 μg/kg) was 387 mg/dL and the “Blood glucose level, 15th day” value ([1]; dose 500 μg/kg) was 381 mg/dL.
